From US9855238B2, “Compositions comprising 15-HEPE and methods of using the same” (Afimmune Limited, priority 2015, dated 2018)
Several values for one entry are separate records, joined by “and”; a condition that tells them apart may be missing. Identical values can stand only once.

How the values were obtained:
Format in all cases: in vivo, human
[1] = Phase I Part 1 single ascending dose (SAD) pharmacokinetics of plasma 15(S)-HEPE, fasted; settings: for AUC0-last / Cmax / Tlast / Tmax: plasma 15(S)-HEPE, Day 1; for AUC0-last / Cmax: geom. mean (geom. CV %); for Tlast / Tmax: median (minimum, maximum)
Procedure: (§1) A Phase I, single-centre, randomised, double-blind, placebo-controlled study in male and female healthy volunteers aged 18 to 45 years, inclusive was performed. Fifty-seven (57) subjects were enrolled with 8 subjects per cohort (ideally 4 males and 4 females, but no less than 3 per gender). Cohort 5 enrolled a total of 9 subjects to account for discontinued subjects. The effective date of study commencement was defined as inclusion of the first subject (inclusion starts with the informed consent signature). Subjects who were enrolled in Part 1 of the study (single dose cohorts) could have been brought back and re-enrolled in Part 2 (multiple dose) provided they had no AEs related to the study drug and that there was at least a 14-day washout period before starting the multiple dose. There were 18 subjects who participated in both study parts. The subjects underwent screening within 21 days prior to study Day 1.
Part 1 comprised 4 dose cohorts (100 mg, 500 mg, 1000 mg, and 2000 mg). Six (6) subjects were randomized to receive DS102 and 2 subjects received matching placebo. A single oral dose of DS102 or matching placebo was administered.
(§2) In Part 1, DS102 capsules (Lot No. 2540M-1504) or matching placebo (Lot No. KM73) were administered in a single oral dose according to Table 1.
(§3) For study Part 1, Cohorts 1, 2, 3, and 4 blood samples were taken predose on Day 1 up to 312 hours postdose. For study Part 2, Cohorts 5, 6, and 7 blood samples were taken on Days 1, 14, and 28 at predose and up to 168 hours postdose. The appropriate PK parameters, e.g., Cmax, Tmax, AUC0-24, AUC0-last, AUC0-inf, AUC % ext, Kel, t½, RCmax, and RAUC were presented, where appropriate. Plasma 15(S)-HEPE data contained many values below the limit of quantitation (BLQ) and only sparse measurable concentrations leading to incomplete PK profiles. Given the nature of the data observed, conventional dose proportionality and steady-state analyses could not be performed. No inferential statistical analyses were performed for PK parameters.
(§4) Summary statistics, including sample size (N), arithmetic mean (mean), standard deviation (SD), coefficient of variation (CV %), median, minimum, and maximum were calculated for all nominal concentration time points. Plasma 15(S)-HEPE PK parameters were tabulated by treatment and listed by subject and parameter. Summary statistics (N, mean, SD, CV %, median, minimum, and maximum) were calculated for plasma 15(S)-HEPE PK parameters. In addition, geometric mean (Geom. Mean) and geometric CV % (Geom. CV %) were presented for AUCs and Cmax. Excluded subjects were included in the PK parameter table listings, but were excluded from the summary statistics and noted as such in the tables. Mean and individual concentration-time profiles were presented on linear and semi-log scales. Linear mean plots were presented with and without SD. Individual plots were presented on linear and semi-log scales.

[2] = Phase I Part 1 food effect pharmacokinetics of plasma 15(S)-HEPE (standard ATPIII/TLC diet, high-fat diet); settings: for Tlast / Tmax: median
Procedure: as §1
Cohort 2 also received 500 mg of DS102 in 2 fed states. While the first 500 mg dose was given in fasted state, the second and third 500 mg doses were given in fed state (standard ATPIII/TLC diet and high-fat diet, respectively). The second dose was received at least 14 days after their first dose and the third dose was received at least 14 days after their second dose.
as §2, §3, §4

[3] = Phase I Part 2 multiple ascending dose (MAD) pharmacokinetics of plasma 15(S)-HEPE, QD for 28 days, fasted; settings: for AUC0-last / Cmax: geom. mean; for Tlast / Tmax: median; for RAUC / RCmax: mean ± SD
Procedure: as §1
Part 2 of the study involved a multipledose regimen at 3 dose levels using 3 cohorts consisting of 8 subjects each. Six (6) subjects were randomized to receive DS102 and 2 subjects received matching placebo. Cohorts 5 and 6 (9 and 8 subjects, respectively) received oral DS102 or placebo QD for 28 days.
In Part 2, DS102 capsules (Lot No. 2540M-1504) or matching placebo (Lot No. KM73) were administered QD for 28 days according to Table 2.
as §3, §4

[4] = Phase I safety evaluation (AEs, clinical laboratory tests, vital signs, ECGs); settings: healthy subjects
Procedure: as §1
All clinical safety data were presented in by-subject data listings. Safety was evaluated by clinical laboratory tests, physical examination, vital signs, electrocardiograms (ECGs), and adverse events (AEs).
Continuous variables were summarized using number of observations (N), mean, SD, median, minimum, and maximum. Frequency counts were reported for categorical data. AEs were classified according to the Medical Dictionary for Regulatory Activities (MedDRA®), Version 18.0. Concomitant medications were classified according to the World Health Organization (WHO) Drug Dictionary 1 Mar. 2015. Vital sign, ECG, and laboratory summary and change from baseline results were presented. Shift tables were also presented for laboratory and ECG parameters.

[5] = single oral 500 mg fasted, N = 2
[6] = single oral 1000 mg fasted, N = 3
[7] = single oral 2000 mg fasted, N = 3
[8] = plasma 15(S)-HEPE, single oral 500 mg fed high fat diet, N = 6, geom. mean
[9] = plasma 15(S)-HEPE, single oral 500 mg fed high fat diet, N = 6
[10] = plasma 15(S)-HEPE, single oral 500 mg fed standard diet, N = 6, geom. mean
[11] = plasma 15(S)-HEPE, single oral 500 mg fed standard diet, N = 6
[12] = single oral 500 mg with a standard or high-fat diet
[13] = 500 mg QD fasted, Days 14 and 28
[14] = plasma 15(S)-HEPE, 500 mg QD fasted, Day 1, N = 6
[15] = plasma 15(S)-HEPE, 500 mg QD fasted, Day 1, reported only for Subject 38
[16] = plasma 15(S)-HEPE, 500 mg QD fasted, Day 14, N = 3
[17] = plasma 15(S)-HEPE, 500 mg QD fasted, Day 28, N = 2

What does the source list for “15-Hydroxy-Eicosapentaenoic Acid Ethyl Ester [DS102]”?
AUC0-last [1, 5]: 1270 (70.9) ng * hr/mL and 1270 ng * hr/mL; Cmax [1, 5]: 343.7 (52.1) ng/mL and 343.7 ng/mL; Tlast [1, 5]: 8.001 (8.00, 8.00) hr and 8.001 hr; Tmax [1, 5]: 6.005 (6.00, 6.01) hr and 6.005 hr; AUC0-last [1, 6]: 1063 (102.6) ng * hr/mL; Cmax [1, 6]: 366.2 (102.5) ng/mL; Tlast [1, 6]: 7.999 (8.00, 8.00) hr; Tmax [1, 6]: 5.996 (5.99, 6.00) hr; AUC0-last [1, 7]: 733.3 (56.5) ng * hr/mL; Cmax [1, 7]: 294.3 (70.1) ng/mL; Tlast [1, 7]: 8.001 (8.00, 8.01) hr; Tmax [1, 7]: 8.001 (6.01, 8.01) hr; Plasma concentrations of 15(S)-HEPE ([1]; single oral 100 mg fasted, entire sampling interval, all subjects): BLQ; median Tmax ([1]; single oral 500 mg fasted): 6.00 h; median Tmax ([1]; single oral 1000 mg fasted): 6.00 h; median Tmax ([1]; single oral 2000 mg fasted): 8.00 h; delay of apparition of 15(S)-HEPE in plasma ([2]; 500 mg with high-fat diet compared to standard diet): 2 h; effect of fed state on 15(S)-HEPE absorption ([2]; fed state (standard or high-fat diet)): considerably increase 15(S)-HEPE absorption; AUC0-last [2, 8]: 9693 ng·h/mL; Cmax [2, 8]: 2402 ng/mL; Tlast [2, 9]: 11.993 h; Tmax [2, 9]: 6.021 h; AUC0-24 [2, 10]: 10940 ng·h/mL; AUC0-last [2, 10]: 8450 ng·h/mL; Cmax [2, 10]: 2420 ng/mL; Tlast [2, 11]: 8.017 h; Tmax [2, 11]: 4.014 h; AUC0-inf ([2]; plasma 15(S)-HEPE, single oral 500 mg fed standard diet, calculable for 4 subjects, geom. mean): 11050 ng·h/mL; t½ ([2]; plasma 15(S)-HEPE, single oral 500 mg fed standard diet, calculable for 4 subjects, mean ± SD): 1.998 ± 1.5155 h; Kel ([2]; plasma 15(S)-HEPE, single oral 500 mg fed standard diet, mean ± SD): 0.471 ± 0.228 h⁻¹; median Tmax ([2]; single oral 500 mg after a high-fat diet): 6.00 h; median Tmax ([2]; single oral 500 mg after a standard diet): 4.00 h; time at which peak mean plasma concentrations were reached [2, 12]: approximately 4 hours; time plasma concentrations remained quantifiable in at least one subject [2, 12]: 12 hours postdose; mean 15(S)-HEPE t½ ([2]; single oral 500 mg, standard diet): 2.00 h and 2.0 h; effect of diet on mean maximum and overall exposure of 15(S)-HEPE (Cmax and AUC0-last) ([2]; single oral 500 mg, standard or high-fat diet relative to fasted): increased mean maximum and overall exposure; mean plasma concentrations of 15(S)-HEPE, fed versus fasted ([2]; single oral 500 mg, standard or high-fat diet vs fasted): higher under fed conditions; time of peak mean 15(S)-HEPE concentrations ([3]; 500 mg QD fasted, Day 1): 4 h; time plasma concentrations remained measurable in at least one subject ([3]; 500 mg QD fasted, Day 14): 24 hours postdose; time plasma concentrations remained measurable in at least one subject ([3]; 500 mg QD fasted, Days 1 and 28): 12 hours postdose; predose values (troughs) [3, 13]: not quantifiable; time of peak mean 15(S)-HEPE concentrations [3, 13]: 6 h; mean plasma 15(S)-HEPE concentrations by study day ([3]; 1000 mg QD fasted): higher on Day 14 than on Days 1 and 28; time plasma concentrations remained quantifiable in at least one subject ([3]; 1000 mg QD fasted, Day 14): 12 hours postdose; time plasma concentrations remained quantifiable in at least one subject ([3]; 1000 mg QD fasted, Days 1 and 28): 8 hours postdose; predose values (troughs) ([3]; 1000 mg QD fasted, Days 14 and 28): no quantifiable predose values; AUC0-last [3, 14]: 1681 ng·h/mL; Cmax [3, 14]: 459.1 ng/mL; Tlast [3, 14]: 8.079 h; Tmax [3, 14]: 5.005 h; AUC0-24 [3, 15]: 6249 ng·h/mL; AUC0-inf [3, 15]: 6277 ng·h/mL; Kel [3, 15]: 0.245 h⁻¹; t½ [3, 15]: 2.824 h; AUC0-last [3, 16]: 2370 ng·h/mL; Cmax [3, 16]: 644.1 ng/mL; RAUC [3, 16]: 6.807 ± 10.322; RCmax [3, 16]: 4.177 ± 5.4055; Tlast [3, 16]: 8.034 h; Tmax [3, 16]: 5.995 h; AUC0-last [3, 17]: 2787 ng·h/mL; Cmax [3, 17]: 737.4 ng/mL; RAUC [3, 17]: 8.205 ± 10.210; RCmax [3, 17]: 5.923 ± 6.8329; Tlast [3, 17]: 10.002 h; Tmax [3, 17]: 6.004 h; adverse events considered related to the study treatment ([4]; following DS102 treatment): dysguesia and eructation; deaths, serious adverse events, discontinuations due to AEs ([4]; single and multiple ascending doses): no deaths, serious adverse events (SAEs), or subject discontinuations due to AEs; safety and tolerability ([4]; single ascending doses of 100 mg, 500 mg, 1000 mg and 2000 mg and multiple ascending doses of 500 mg, 500 and 1000 mg): safe and well tolerated
